The assay addresses T1, mouse alkaline ceramidase 1 (maCER1) (Mus musculus, UniProt Q8R4X1).
T1 construct: The ORF of the mouse alkaline ceramidase was amplified from the mouse liver cDNA library; made in house; host or cells: Saccharomyces cerevisiae mutant strain Δypc1Δydc1 (microsomes, galactose-induced, pYES2-FLAG-maCER1)
T1 sequence (Q8R4X1 1-273): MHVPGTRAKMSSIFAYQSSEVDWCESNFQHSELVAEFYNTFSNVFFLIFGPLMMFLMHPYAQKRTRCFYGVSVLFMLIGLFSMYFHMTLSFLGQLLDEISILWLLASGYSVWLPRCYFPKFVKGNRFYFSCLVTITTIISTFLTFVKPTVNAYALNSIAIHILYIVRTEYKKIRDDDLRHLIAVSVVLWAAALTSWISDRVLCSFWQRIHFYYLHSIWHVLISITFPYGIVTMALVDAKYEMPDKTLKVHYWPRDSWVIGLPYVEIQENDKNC
Briefly: Ceramidase activity assay with maCER1-containing yeast microsomes (release of NBD-fatty acid from D-e-C12-NBD-ceramide). It is filed as biochemical. The settings on record: FIG. 4C; for effect of sphingoid base on ceramidase activity (in words): same concentration range as sphingosine. The method, then:
The microsomes, as in FIGS. 2A-D were assayed for ceramidase activity using D-e-C12-NBD-ceramide (200 μM) as substrate at different pH in the presence of 0.2% NP-40 and 5 mM Ca^2+ (FIG. 4A), at pH 8.5 in the presence of different cations (FIG. 4B), or different sphingoid bases (FIG. 4C). Results are the mean±SD of three independent experiments performed in duplicate.
maCER1 was expressed in yeast cells as described (Reference 21). Briefly, the expression construct pYES2-FLAG-maCER1 or the empty vector pYES2-FLAG was transformed into the yeast strain Δypc1Δydc1. Expression of the FLAG-tagged maCER1 was induced by 2% galactose.
Ceramidase activity was determined by the release of NBD-fatty acid from fluorescent substrates, NBD-C12-ceramide, dihydroceramide, or phytoceramide as described (Reference 21). Briefly, 20 μl of microsomes (containing 10-20 μg proteins) in buffer B (25 mM Tris-HCl, pH 8.0, 5 mM CaCl2) was mixed with 20 μl of 200 μM NBD-ceramide in buffer B with 0.4% NP-40 in a 1.5 ml microfuge tube. After incubation at 37° C. for 30-60 min, the reactions were stopped by boiling for 5 min, and dried under a SpeedVec. The released NBD-fatty acid was separated from NBD-ceramide by TLC in a solvent of chloroform:methanol: ammonium hydroxide (90:30:0.5) and quantified by PhosphorImager set at the fluorescent mode. To determine the pH optimum of maCER1, the maCER1 microsomes were resuspended in buffer C (1 mM Tris-HCl, pH 7.4, containing 5 mM CaCl2). To determine a cation effect, the maCER1 microsomes were resuspended in buffer A without CaCl2.

The values below come from patent US20060099681A1, “Human and mouse alkaline ceramidase 1 and skin diseases” (U.S. DEPARTMENT OF VETERANS AFFAIRS, priority 2004, published 2006).

For orientation: IC50 means the concentration that gives 50% inhibition. On to `CCCCCCCCCCCCC/C=C/[C@@H](O)[C@@H](N)CO` [sphingosine, D-erythro-sphingosine], for which the IC50 (maCER1 microsomes, substrate D-e-C12-NBD-ceramide (200 μM), read-out: IC50 for the inhibition of ceramidase activity) is around 80 µM.

As to `CCCCCCCCCCCCCCC[C@@H](O)[C@@H](N)CO` [dihydrosphingosine, D-erythro-dihydrosphingosine], the “effect of sphingoid base on ceramidase activity (in words)” value was “neither phytosphingosine nor dihydrosphingosine in the same concentration range were inhibitory”.

Consider `CCCCCCCCCCCCCC[C@@H](O)[C@@H](O)[C@@H](N)CO` [phytosphingosine, D-ribo-phytosphingosine], for which the “effect of sphingoid base on ceramidase activity (in words)” value is “neither phytosphingosine nor dihydrosphingosine in the same concentration range were inhibitory”.
